Measurements: US20230134986A1, “GLUCOSE TRIPTOLIDE CONJUGATES AND USES THEREOF” (The Johns Hopkins University, priority 2020, published 2023)

Legend:
Type in all cases: cell-based, human
[1] = system: T7115 (C342T XPB knock-in HEK293T cells); experiment: Proliferation of XPB C342T knock-in cell line T7115 ([3H]-thymidine incorporation); conditions: C342T XPB knock-in versus isogenic WT 293T
Excerpt: (§1) Cells and culture conditions. Primary astrocytes (Lonza, Walkersville, Md.; ABM™ Basal Media with AGM™ SingleQuots™ Supplement Pack), fibroblast (ATCC; Fibroblast Basal Medium (ATCC© PCS-201-030™) with Fibroblast Growth Kit-Serum-free (ATCC© PCS-201-040™)), airway epithelial cell (ATCC; Airway Epithelial Cell Basal Medium (ATCC© PCS-300-030™) with Bronchial Epithelial Cell Growth Kit (ATCC© PCS-300-040™)), renal proximal tubule (ATCC; Renal Epithelial Cell Basal Medium (ATCC© PCS-400-030™) with Renal Epithelial Cell Growth Kit (ATCC© PCS-400-040™)), prostate epithelial cell (Lonza; PrEGM™ BulletKit™) and mammary epithelial cell (Lonza; MEBM™ BulletKit™) were kept in a humidified incubator at 37° C. adjusted to 5% CO2. […]

MDA MB231 cells = experiment: MDA MB231 proliferation under hypoxia ([3H]-thymidine incorporation); conditions: MDA MB231, 1% O2, 48 h post treatment
[2] = system: RPB1 in C342T XPB mutant cell line; experiment: RPB1 degradation in C342T XPB knock-in cells, western blot; conditions: C342T XPB mutant cell line, compound 1 up to 3 mM (so in the source)
Excerpt: as §1
Western blot analysis. […] Antibody-protein complexes were detected using enhanced chemiluminescence (ECL) immunoblotting detection reagent (EMD Millipore).

## CC(C)[C@]12O[C@H]1[C@@H]1O[C@]13[C@]1(O[C@H]1C[C@H]1C4=C(CC[C@@]13C)C(=O)OC4)[C@@H]2OC(=O)CCCO[C@@H]1OC(CO)[C@@H](O)C(O)C1O (stereo in doubt) [Compound 1]
[1]
  sensitivity of T7115 mutant line (proliferation): resistant
MDA MB231 cells
  effect of hypoxia on anti-proliferative effect: enhances the anti-proliferative effect
[2]
  RPB1 level: remained stable
